Test results: ChEMBL document CHEMBL4028802, “DILIrank: the largest reference drug list ranked by the risk for developing drug-induced liver injury in humans” (Drug Discov Today, 2016)

How the values were obtained:
[1] = species: Homo sapiens; experiment: Liver toxicity in human assessed as induction of drug-induced liver injury by measuring severity class index
[2] = species: Homo sapiens; experiment: Liver toxicity in human assessed as induction of drug-induced liver injury by measuring verified drug-induced liver injury concern status
For DILI severity class in this document: key of the grades not given here.

| Structure (SMILES) | DILI_severity_class [1] | DILI_Concern [2] |
| --- | --- | --- |
| OC[C@@H](O)[C@@H](O)[C@H](O)[C@@H](O)CO [SORBITOL] | 0 | No-Dili-Concern |
| CC(C)NCC(O)c1ccc(NS(C)(=O)=O)cc1 (stereo unspecified) [SOTALOL] | 3 | Ambiguous-Dili-Concern |
| CN[C@@H]1[C@H](O)[C@H](NC)[C@H]2O[C@@]3(O)C(=O)C[C@@H](C)O[C@H]3O[C@@H]2[C@H]1O [SPECTINOMYCIN] | 3 | Ambiguous-Dili-Concern |
| CC(=O)S[C@@H]1CC2=CC(=O)CC[C@]2(C)[C@H]2CC[C@@]3(C)[C@@H](CC[C@@]34CCC(=O)O4)[C@H]12 [SPIRONOLACTONE] | 2 | Less-Dili-Concern |
| Cc1cn([C@H]2C=C[C@@H](CO)O2)c(=O)[nH]c1=O [STAVUDINE] | 8 | Most-Dili-Concern |
| [H]/N=C(/N)N[C@H]1[C@H](O)[C@@H](O)[C@H](O[C@@H]2O[C@@H](C)[C@](O)(C=O)[C@H]2O[C@@H]2O[C@@H](CO)[C@H](O)[C@@H](O)[C@@H]2NC)[C@@H](N/C(N)=N\[H])[C@@H]1O [STREPTOMYCIN] | 0 | No-Dili-Concern |
| CN(N=O)C(=O)N[C@@H](C=O)[C@@H](O)[C@H](O)[C@H](O)CO [STREPTOZOCIN] | 3 | Ambiguous-Dili-Concern |
| NC(=O)NS(=O)(=O)c1ccc(N)cc1 [SULFACARBAMIDE] | 8 | Most-Dili-Concern |
| Nc1ccc(S(=O)(=O)Nc2ncccn2)cc1 [SULFADIAZINE] | 3 | Less-Dili-Concern |
| Cc1nnc(NS(=O)(=O)c2ccc(N)cc2)s1 [SULFAMETHIZOLE] | 0 | Less-Dili-Concern |
| O=C(O)c1cc(/N=N/c2ccc(S(=O)(=O)Nc3ccccn3)cc2)ccc1O [SULFASALAZINE] | 5 | Most-Dili-Concern |
| Nc1ccc(S(=O)(=O)Nc2nccs2)cc1 [SULFATHIAZOLE] | 8 | Most-Dili-Concern |
| CCCCCCCCNC(C)C(O)c1ccc(SC(C)C)cc1 (stereo unspecified) [SULOCTIDIL] | 8 | Most-Dili-Concern |
| CCN(CC)CCNC(=O)c1c(C)[nH]c(/C=C2\C(=O)Nc3ccc(F)cc32)c1C [SUNITINIB] | 8 | Most-Dili-Concern |
| C[N+](C)(C)CCOC(=O)CCC(=O)OCC[N+](C)(C)C [SUXAMETHONIUM] | 0 | No-Dili-Concern |
| C=CC[C@@H]1/C=C(\C)C[C@H](C)C[C@H](OC)[C@H]2O[C@@](O)(C(=O)C(=O)N3CCCC[C@H]3C(=O)O[C@H](/C(C)=C/[C@@H]3CC[C@@H](O)[C@H](OC)C3)[C@H](C)[C@@H](O)CC1=O)[C@H](C)C[C@@H]2OC [TACROLIMUS ANHYDROUS] | 5 | Less-Dili-Concern |
| CCOc1ccccc1OCCN[C@H](C)Cc1ccc(OC)c(S(N)(=O)=O)c1 [TAMSULOSIN] | 0 | Less-Dili-Concern |
| CC[C@@H](c1cccc(O)c1)[C@@H](C)CN(C)C [TAPENTADOL] | 0 | No-Dili-Concern |
| Cc1nc(C)c2c(n1)N(Cc1ccc(-c3ccccc3-c3nnn[nH]3)cc1)C(=O)CC2 [TASOSARTAN] | 8 | Most-Dili-Concern |
| CCCCCNC(=N)N/N=C/c1c[nH]c2ccc(OC)cc12 [TEGASEROD] | 3 | Ambiguous-Dili-Concern |
| Cc1cn([C@@H]2C[C@@H](O)[C@H](CO)O2)c(=O)[nH]c1=O [TELBIVUDINE] | 2 | Ambiguous-Dili-Concern |
| CC[C@H]1OC(=O)[C@H](C)C(=O)[C@H](C)[C@@H](O[C@@H]2O[C@H](C)C[C@H](N(C)C)[C@H]2O)[C@](C)(OC)C[C@@H](C)C(=O)[C@H](C)[C@H]2N(CCCCn3cnc(-c4cccnc4)c3)C(=O)O[C@]12C [TELITHROMYCIN] | 8 | Most-Dili-Concern |
| CN1C(=O)C(O)N=C(c2ccccc2)c2cc(Cl)ccc21 (stereo unspecified) [TEMAZEPAM] | 3 | Ambiguous-Dili-Concern |
| Cn1nnc2c(C(N)=O)ncn2c1=O [TEMOZOLOMIDE] | 4 | Less-Dili-Concern |
| CO[C@H]1C[C@@H]2CC[C@@H](C)[C@@](O)(O2)C(=O)C(=O)N2CCCC[C@H]2C(=O)O[C@H]([C@H](C)C[C@@H]2CC[C@@H](OC(=O)C(C)(CO)CO)[C@H](OC)C2)CC(=O)[C@H](C)/C=C(\C)[C@@H](O)[C@@H](OC)C(=O)[C@H](C)C[C@H](C)/C=C/C=C/C=C/1C [TEMSIROLIMUS] | 0 | No-Dili-Concern |
| COc1cc([C@@H]2c3cc4c(cc3[C@@H](O[C@@H]3O[C@@H]5CO[C@@H](c6cccs6)O[C@H]5[C@H](O)[C@H]3O)[C@H]3COC(=O)[C@H]23)OCO4)cc(OC)c1O [TENIPOSIDE] | 3 | Less-Dili-Concern |
| C[C@H](Cn1cnc2c(N)ncnc21)OCP(=O)(O)O [TENOFOVIR ANHYDROUS] | 3 | Less-Dili-Concern |

| Structure (SMILES) | DILI_severity_class [1] | DILI_Concern [2] |
| --- | --- | --- |
| COc1cc2nc(N3CCN(C(=O)C4CCCO4)CC3)nc(N)c2cc1OC (stereo unspecified) [TERAZOSIN] | 0 | No-Dili-Concern |
| CN(C/C=C/C#CC(C)(C)C)Cc1cccc2ccccc12 [TERBINAFINE] | 8 | Most-Dili-Concern |
| CC(C)(C)NCC(O)c1cc(O)cc(O)c1 (stereo unspecified) [TERBUTALINE] | 3 | Less-Dili-Concern |
| CC[C@H](C)[C@H](NC(=O)[C@H](CCC(=O)O)NC(=O)[C@H](CO)NC(=O)[C@@H](NC(=O)[C@@H](N)CO)C(C)C)C(=O)N[C@@H](CCC(N)=O)C(=O)N[C@@H](CC(C)C)C(=O)N[C@@H](CCSC)C(=O)N[C@@H](Cc1cnc[nH]1)C(=O)N[C@@H](CC(N)=O)C(=O)N[C@@H](CC(C)C)C(=O)NCC(=O)N[C@@H](CCCCN)C(=O)N[C@@H](Cc1cnc[nH]1)C(=O)N[C@@H](CC(C)C)C(=O)N[C@@H](CC(N)=O)C(=O)N[C@@H](CO)C(=O)N[C@@H](CCSC)C(=O)N[C@@H](CCC(=O)O)C(=O)N[C@@H](CCCN=C(N)N)C(=O)N[C@H](C(=O)N[C@@H](CCC(=O)O)C(=O)N[C@@H](Cc1c[nH]c2ccccc12)C(=O)N[C@@H](CC(C)C)C(=O)N[C@@H](CCCN=C(N)N)C(=O)N[C@@H](CCCCN)C(=O)N[C@@H](CCCCN)C(=O)N[C@@H](CC(C)C)C(=O)N[C@@H](CCC(N)=O)C(=O)N[C@@H](CC(=O)O)C(=O)N[C@H](C(=O)N[C@@H](Cc1cnc[nH]1)C(=O)N[C@@H](CC(N)=O)C(=O)N[C@@H](Cc1ccccc1)C(=O)O)C(C)C)C(C)C [TERIPARATIDE] | 0 | No-Dili-Concern |
| C[C@]12CC[C@H]3[C@@H](CCC4=CC(=O)CC[C@@]43C)[C@@H]1CC[C@@H]2O [TESTOSTERONE] | 8 | Most-Dili-Concern |
| COc1cc2c(cc1OC)C1CC(=O)C(CC(C)C)CN1CC2 (stereo unspecified) [TETRABENAZINE] | 3 | Ambiguous-Dili-Concern |
| CN(C)[C@@H]1C(O)=C(C(N)=O)C(=O)[C@@]2(O)C(O)=C3C(=O)c4c(O)cccc4[C@@](C)(O)[C@H]3C[C@@H]12 [TETRACYCLINE] | 2 | Less-Dili-Concern |
| O=C1CCC(N2C(=O)c3ccccc3C2=O)C(=O)N1 (stereo unspecified) [THALIDOMIDE] | 4 | Less-Dili-Concern |
| Cn1c(=O)c2[nH]cnc2n(C)c1=O.O [THEOPHYLLINE] | 0 | No-Dili-Concern |
| c1ccc2[nH]c(-c3cscn3)nc2c1 [THIABENDAZOLE] | 7 | Most-Dili-Concern |
| Cc1ncc(C[n+]2csc(CCO)c2C)c(N)n1 [THIAMINE ION] | 0 | No-Dili-Concern |
| CSc1ccc2c(c1)N(CCC1CCCCN1C)c1ccccc1S2 (stereo unspecified) [THIORIDAZINE] | 5 | Less-Dili-Concern |
| S=P(N1CC1)(N1CC1)N1CC1 [THIOTEPA] | 3 | Less-Dili-Concern |
| Cc1ccsc1C(=CCCN1CCC[C@@H](C(=O)O)C1)c1sccc1C [TIAGABINE] | 3 | Ambiguous-Dili-Concern |
| CN(C)c1cc(NC(=O)CNC(C)(C)C)c(O)c2c1C[C@H]1C[C@H]3[C@H](N(C)C)C(O)=C(C(N)=O)C(=O)[C@@]3(O)C(O)=C1C2=O [TIGECYCLINE] | 8 | Ambiguous-Dili-Concern |
| Cc1cc(Br)c(O)c2ncccc12 [TILBROQUINOL] | 8 | Most-Dili-Concern |
| O=P(O)(O)C(Sc1ccc(Cl)cc1)P(=O)(O)O [TILUDRONIC ACID] | 0 | No-Dili-Concern |
| CC(C)(C)NC[C@H](O)COc1nsnc1N1CCOCC1 [TIMOLOL] | 5 | Ambiguous-Dili-Concern |
| CCS(=O)(=O)CCn1c([N+](=O)[O-])cnc1C [TINIDAZOLE] | 3 | Less-Dili-Concern |
| CC(S)C(=O)NCC(=O)O (stereo unspecified) [TIOPRONIN] | 3 | Ambiguous-Dili-Concern |
| CCCCS(=O)(=O)N[C@@H](Cc1ccc(OCCCCC2CCNCC2)cc1)C(=O)O [TIROFIBAN] | 0 | No-Dili-Concern |
| Clc1ccc2nsnc2c1NC1=NCCN1 [TIZANIDINE] | 8 | Most-Dili-Concern |
| Cc1ccc(S(=O)(=O)NC(=O)NN2CCCCCC2)cc1 [TOLAZAMIDE] | 2 | Less-Dili-Concern |
| Cc1ccc(C(=O)c2cc(O)c(O)c([N+](=O)[O-])c2)cc1 [TOLCAPONE] | 8 | Most-Dili-Concern |
| Cc1ccc(C(=O)c2ccc(CC(=O)O)n2C)cc1 [TOLMETIN] | 3 | Less-Dili-Concern |
| COc1ccc2c(C(=S)N(C)CC(=O)O)cccc2c1C(F)(F)F [TOLRESTAT] | 8 | Most-Dili-Concern |
